This is an account of results in PMC4319893, “Targeting Protein-Protein Interactions with Trimeric Ligands: High Affinity Inhibitors of the MAGUK Protein Family” (PLoS ONE, 2015).

Where only a bound is given, the exact number is not on record here.

One assay addresses T1, PSD-95 PDZ1-2-3 (Homo sapiens, UniProt P78352).
T1 construct: 7xHis; made in house; host or cells: E. coli BL21(DE3)pLysS
Kind of assay: Fluorescence polarization (FP) binding assay, PSD-95 PDZ1-2-3.

A further assay deals with T2, FL PSD-95 (I100W) (Homo sapiens, UniProt P78352, I100W).
T2 construct: PSD-95 FL: 61-end; made in house; host or cells: E. coli (pET32m3C vector; QuickChange mutagenesis)
Kind of assay: Stopped-flow spectrometry binding kinetics, FL PSD-95 I100W. The settings on record: 50 mM potassium phosphate pH 7.5, 10°C.

In a further assay the target is T3, FL PSD-95 (I195W) (Homo sapiens, UniProt P78352, I195W).
T3 construct: PSD-95 FL: 61-end; made in house; host or cells: E. coli (pET32m3C vector; QuickChange mutagenesis)
Kind of assay: Stopped-flow spectrometry binding kinetics, FL PSD-95 I195W. Particulars: 50 mM potassium phosphate pH 7.5, 10°C.

The target in a further assay is T4, FL PSD-95 wild-type (Homo sapiens, UniProt P78352).
T4 construct: PSD-95 FL: 61-end; made in house; host or cells: E. coli (pET32m3C vector; construct donated by M. Zhang)
Kind of assay: Stopped-flow spectrometry binding kinetics, FL PSD-95 wild-type. The settings on record: 50 mM potassium phosphate pH 7.5, 10°C.

The target in the next assay is PSD-95 PDZ1-2 (Homo sapiens, UniProt P78352). Particulars: FP.
The subject of the next assay is single PDZ3 domain. On the set-up: method as in PMID 21653701. Particulars: observed previously; cited from earlier work.

Experimental for FL PSD-95 (I100W): (§1) Kinetic experiments using stopped-flow were carried out under the conditions used previously,[37, 38] namely in 50 mM potassium phosphate, pH 7.5 at 10°C. The change in fluorescence upon binding was monitored with a 330 nm band-pass filter following excitation at 280 nm. […] Regarding the fluorophores and the observed changes in fluorescence, several events contribute to the observed signal. […] This could be either through FRET or by absorbing excitation light. Both fluorophores are also themselves excited at 280 nm (less) and 330 nm (more) and their intrinsic fluorescence may change on binding to the proteins.
(§2) This observed rate constant might be the average of the two k obs values observed upon excitation at 280 nm/emission at 330 nm.
Experimental for FL PSD-95 (I195W): as §1, §2
Experimental for FL PSD-95 wild-type: as §1, §2
Experimental for PSD-95 PDZ1-2-3: The monomeric FP assay was conducted as previously described except that the proteins were diluted in 50 mM TRIS, 100 mM NaCl, 1 mM ethylenediaminetetraacetate (EDTA), 1 mM DTT.[34] The monomeric probe was only used when monomeric binding to PSD95 PDZ1-2 and PSD95 PDZ1-2-3 was evaluated, whereas 18 was used as probe for evaluating the binding of the dimeric and trimeric ligands. […] In all of the experiments a blank (buffer) and a reference sample (0.5 nM probe in buffer) were used. A total of 30 μl was pipetted into the wells of a 384 flat black bottom well plate. The FP was measured on a Tecan Safire 2 microplate reader (Tecan Group LTD., Männedorf, Germany). The absorption/emission wavelengths were set to 635/670 nm, corresponding to the Cy5 spectra. The obtained IC50 values were converted to K i values using the equations described by Nikolovska-Coleska et al.[35] […] Consequently, the Ki-value will become negative when the difference between the IC50-value and the Kd is too great.[35, 36]

With YKQTSV [Compound 1], at PSD-95 PDZ1-2-3, the “fold lower affinity compared to trimeric ligand 17, PDZ1-2-3” value is reported as more than 1000 fold. Moreover, the “kon app, PSD-95 FL I100W” value at FL PSD-95 (I100W) amounted to 6.3 ± 0.19 µM⁻¹ s⁻¹. On FL PSD-95 (I195W), the “kon app, PSD-95 FL I195W” value worked out at 6.3 ± 0.13 µM⁻¹ s⁻¹. The “kon app, PSD-95 wild-type” value on FL PSD-95 wild-type turned out to be 6.0 ± 0.1 µM⁻¹ s⁻¹. Besides, the “fold lower affinity compared to trimeric ligand 17, PDZ1-2” value on PSD-95 PDZ1-2 was more than 1000 fold.

As to “dansyl-1: N-terminally dansylated CRIPT hexapeptide YKQTSV”, the “observed rate constant dansyl-1/PDZ3” value in the assay on single PDZ3 domain was 1.6 s⁻¹.
